Tests used:
[1] = system: K. pneumoniae ATCC 10031 (SEN) and K. pneumoniae ATCC 700603 (MDR); assay: Adaptive laboratory evolution (ALE), relative MIC of evolved lines; format: cell-based, Klebsiella pneumoniae
Outline: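 Ten parallel populations per antibiotic–ancestor pair were evolved in MHB at 37 °C, starting near 50% growth-inhibiting drug. Every 72 h they were passaged into 0.5–2.5× increasing concentrations, keeping the highest-drug well with OD600 > 0.2.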

E. coli BW25113-ΔacrB = assay: AcrAB-TolC efflux deficiency screen, relative MIC; format: cell-based, Escherichia coli; details: ΔacrB vs wild-type
Outline: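 Broth microdilution in MHB (supplemented MS for SCH79797), ten-step antibiotic dilutions, 5 × 10^5 cells/mL, 18 h at 37 °C with shaking; MIC is lowest concentration giving background-corrected OD600 < 0.05. Relative MIC as log2 ratio: ΔacrB vs wild-type; pUCacrAB vs empty pUC118 (plasmid strains under 100 µg/mL ampicillin). Mean of 3 biological replicates.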

[2] = KP-SEN (Klebsiella pneumoniae ATCC 10031), evolved line 2
[3] = KP-SEN (Klebsiella pneumoniae ATCC 10031), evolved line 6
[4] = KP-SEN (Klebsiella pneumoniae ATCC 10031), evolved line 8
[5] = KP-SEN (Klebsiella pneumoniae ATCC 10031), evolved line 10
[6] = Klebsiella pneumoniae ATCC 10031 (KP-SEN), evolved line 1
[7] = Klebsiella pneumoniae ATCC 10031 (KP-SEN), evolved line 2
[8] = Klebsiella pneumoniae ATCC 10031 (KP-SEN), evolved line 3
[9] = Klebsiella pneumoniae ATCC 10031 (KP-SEN), evolved line 4
[10] = Klebsiella pneumoniae ATCC 10031 (KP-SEN), evolved line 5
[11] = Klebsiella pneumoniae ATCC 10031 (KP-SEN), evolved line 6
[12] = Klebsiella pneumoniae ATCC 10031 (KP-SEN), evolved line 8
[13] = Klebsiella pneumoniae ATCC 10031 (KP-SEN), evolved line 10

SMILES: C[C@@H](O)[C@H]1C(=O)N2C(C(=O)O)=C(S[C@H]3CC[S@@+]([O-])C3)S[C@H]12 [Sulopenem]
- MIC of evolved line ([1]; KP-MDR (K. pneumoniae ATCC 700603), evolved line 1 of the given antibiotic): 128 µg/mL
- Relative MIC ([1]; KP-MDR (K. pneumoniae ATCC 700603), evolved line 1 vs ancestor): 256
- MIC of evolved line ([1]; KP-MDR (K. pneumoniae ATCC 700603), evolved line 3 of the given antibiotic): 128 µg/mL
- Relative MIC ([1]; KP-MDR (K. pneumoniae ATCC 700603), evolved line 3 vs ancestor): 256
- MIC of evolved line ([1]; KP-MDR (K. pneumoniae ATCC 700603), evolved line 4 of the given antibiotic): 128 µg/mL
- Relative MIC ([1]; KP-MDR (K. pneumoniae ATCC 700603), evolved line 4 vs ancestor): 256
- MIC of evolved line ([1]; KP-MDR (K. pneumoniae ATCC 700603), evolved line 5 of the given antibiotic): 128 µg/mL
- Relative MIC ([1]; KP-MDR (K. pneumoniae ATCC 700603), evolved line 5 vs ancestor): 256
- MIC of evolved line ([1]; KP-MDR (K. pneumoniae ATCC 700603), evolved line 8 of the given antibiotic): 128 µg/mL
- Relative MIC ([1]; KP-MDR (K. pneumoniae ATCC 700603), evolved line 8 vs ancestor): 256
- MIC of evolved line ([1]; KP-MDR (K. pneumoniae ATCC 700603), evolved line 9 of the given antibiotic): 128 µg/mL
- Relative MIC ([1]; KP-MDR (K. pneumoniae ATCC 700603), evolved line 9 vs ancestor): 256
- MIC of evolved line ([1]; KP-MDR (K. pneumoniae ATCC 700603), evolved line 10 of the given antibiotic): 128 µg/mL
- Relative MIC ([1]; KP-MDR (K. pneumoniae ATCC 700603), evolved line 10 vs ancestor): 256
- Relative MIC (log10) ([1]; KP-MDR (Klebsiella pneumoniae ATCC 700603), evolved line 1): 2.408 log10
- Relative MIC (log10) ([1]; KP-MDR (Klebsiella pneumoniae ATCC 700603), evolved line 3): 2.408 log10
- Relative MIC (log10) ([1]; KP-MDR (Klebsiella pneumoniae ATCC 700603), evolved line 4): 2.408 log10
- Relative MIC (log10) ([1]; KP-MDR (Klebsiella pneumoniae ATCC 700603), evolved line 8): 2.408 log10
- Relative MIC (log10) ([1]; KP-MDR (Klebsiella pneumoniae ATCC 700603), evolved line 9): 2.408 log10
- MIC of evolved line ([1]; KP-SEN (K. pneumoniae ATCC 10031), evolved line 1 of the given antibiotic): 1 µg/mL
- Relative MIC ([1]; KP-SEN (K. pneumoniae ATCC 10031), evolved line 1 vs ancestor): 32
- MIC of evolved line ([1]; KP-SEN (K. pneumoniae ATCC 10031), evolved line 2 of the given antibiotic): 1 µg/mL
- Relative MIC ([1]; KP-SEN (K. pneumoniae ATCC 10031), evolved line 2 vs ancestor): 32
- MIC of evolved line ([1]; KP-SEN (K. pneumoniae ATCC 10031), evolved line 3 of the given antibiotic): 0.25 µg/mL
- Relative MIC ([1]; KP-SEN (K. pneumoniae ATCC 10031), evolved line 3 vs ancestor): 8
- MIC of evolved line ([1]; KP-SEN (K. pneumoniae ATCC 10031), evolved line 4 of the given antibiotic): 0.5 µg/mL
- Relative MIC ([1]; KP-SEN (K. pneumoniae ATCC 10031), evolved line 4 vs ancestor): 16
- MIC of evolved line ([1]; KP-SEN (K. pneumoniae ATCC 10031), evolved line 5 of the given antibiotic): 0.5 µg/mL
- Relative MIC ([1]; KP-SEN (K. pneumoniae ATCC 10031), evolved line 5 vs ancestor): 16
- MIC of evolved line ([1]; KP-SEN (K. pneumoniae ATCC 10031), evolved line 6 of the given antibiotic): 1 µg/mL
- Relative MIC ([1]; KP-SEN (K. pneumoniae ATCC 10031), evolved line 6 vs ancestor): 32
- MIC of evolved line ([1]; KP-SEN (K. pneumoniae ATCC 10031), evolved line 8 of the given antibiotic): 1 µg/mL
- Relative MIC ([1]; KP-SEN (K. pneumoniae ATCC 10031), evolved line 8 vs ancestor): 32
- MIC of evolved line ([1]; KP-SEN (K. pneumoniae ATCC 10031), evolved line 9 of the given antibiotic): 0.5 µg/mL
- Relative MIC ([1]; KP-SEN (K. pneumoniae ATCC 10031), evolved line 9 vs ancestor): 16
- MIC of evolved line ([1]; KP-SEN (K. pneumoniae ATCC 10031), evolved line 10 of the given antibiotic): 1 µg/mL
- Relative MIC ([1]; KP-SEN (K. pneumoniae ATCC 10031), evolved line 10 vs ancestor): 32
- Relative MIC (log10) ([1]; KP-SEN (Klebsiella pneumoniae ATCC 10031), evolved line 1): 1.505 log10
- Relative MIC (log10) [1, 2]: 1.505 log10
- Relative MIC (log10) [1, 3]: 1.505 log10
- Relative MIC (log10) [1, 4]: 1.505 log10
- Relative MIC (log10) [1, 5]: 1.505 log10
- Relative MIC [1, 6]: 32
- Relative MIC [1, 7]: 32
- Relative MIC [1, 8]: 8
- Relative MIC [1, 9]: 16
- Relative MIC [1, 10]: 16
- Relative MIC [1, 11]: 32
- Relative MIC [1, 12]: 32
- Relative MIC ([1]; Klebsiella pneumoniae ATCC 10031 (KP-SEN), evolved line 9): 16
- Relative MIC [1, 13]: 32
- Relative MIC ([1]; Klebsiella pneumoniae ATCC 700603 (KP-MDR), evolved line 1): 256
- Relative MIC ([1]; Klebsiella pneumoniae ATCC 700603 (KP-MDR), evolved line 3): 256
- Relative MIC ([1]; Klebsiella pneumoniae ATCC 700603 (KP-MDR), evolved line 4): 256
- Relative MIC ([1]; Klebsiella pneumoniae ATCC 700603 (KP-MDR), evolved line 5): 256
- Relative MIC ([1]; Klebsiella pneumoniae ATCC 700603 (KP-MDR), evolved line 8): 256
- Relative MIC ([1]; Klebsiella pneumoniae ATCC 700603 (KP-MDR), evolved line 9): 256
- Relative MIC ([1]; Klebsiella pneumoniae ATCC 700603 (KP-MDR), evolved line 10): 256
- Relative MIC (log2) (E. coli BW25113-ΔacrB; replicate 1): 0.585
- Relative MIC (log2) (E. coli BW25113-ΔacrB; replicate 2): 0.585
- Relative MIC (log2) (E. coli BW25113-ΔacrB; replicate 3): 0.585

SMILES: C[C@@H]1CN2c3c(cc4c(N5C(=O)OC[C@@H]5C)noc4c3F)CC3(C(=O)NC(=O)NC3=O)[C@H]2[C@H](C)O1 [Zoliflodacin]
- Relative MIC ([1]; KP-SEN (ATCC 10031), evolved line 1, evolved vs ancestor): 1024
- Relative MIC ([1]; KP-SEN (ATCC 10031), evolved line 2, evolved vs ancestor): 1024
- Relative MIC ([1]; KP-SEN (ATCC 10031), evolved line 3, evolved vs ancestor): 512
- Relative MIC ([1]; KP-SEN (ATCC 10031), evolved line 4, evolved vs ancestor): 1024
- Relative MIC ([1]; KP-SEN (ATCC 10031), evolved line 5, evolved vs ancestor): 1024
- Relative MIC ([1]; KP-SEN (ATCC 10031), evolved line 6, evolved vs ancestor): 1024
- Relative MIC ([1]; KP-SEN (ATCC 10031), evolved line 7, evolved vs ancestor): 1024
- Relative MIC ([1]; KP-SEN (ATCC 10031), evolved line 8, evolved vs ancestor): 1024
- Relative MIC ([1]; KP-SEN (ATCC 10031), evolved line 10, evolved vs ancestor): 1024
- Relative MIC (log10) [1, 2]: 3.0103 log10
- Relative MIC (log10) ([1]; KP-SEN (Klebsiella pneumoniae ATCC 10031), evolved line 4): 3.0103 log10
- Relative MIC (log10) [1, 3]: 3.0103 log10
- Relative MIC (log10) [1, 4]: 3.0103 log10
- Relative MIC (log10) [1, 5]: 3.0103 log10
- Relative MIC [1, 6]: 1024
- Relative MIC [1, 7]: 1024
- Relative MIC [1, 8]: 512
- Relative MIC [1, 9]: 1024
- Relative MIC [1, 10]: 1024
- Relative MIC [1, 11]: 1024
- Relative MIC ([1]; Klebsiella pneumoniae ATCC 10031 (KP-SEN), evolved line 7): 1024
- Relative MIC [1, 12]: 1024
- Relative MIC [1, 13]: 1024
- Relative MIC (log2) (E. coli BW25113-ΔacrB; replicate 1): -4
- Relative MIC (log2) (E. coli BW25113-ΔacrB; replicate 2): -4
- Relative MIC (log2) (E. coli BW25113-ΔacrB; replicate 3): -4

Source: publication PMC11845477, “Exploring the principles behind antibiotics with limited resistance” (Nature Communications, 2025)
